US7521478B2, “Total synthesis of myriaporones” (Pharma Mar, S.A.U., priority 2002, dated 2009)
Where two headings read alike, the source gives them in different places.

How the values were obtained:
Assay type in all cases: cell-based
SK-BR-3 = assay: Inhibition of cell growth by colorimetric SRB assay, SK-BR-3; conditions: SK-BR-3, 48 hours exposure; for GI50 / CC50: Homo sapiens; for CC50: cell killing, read-out: LC50 (the source's name); for TGI: total growth inhibition
Description: (§1) The finality of these assays is to interrupt the growth of a “in vitro” tumor cell culture by means a continued exhibition of the cells to the sample to be testing.
(§2) Inhibition of Cell Growth by Colorimetric Assay.
(§3) A colorimetric type of assay, using sulforhodamine B (SRB) reaction has been adapted for a quantitative measurement of cell growth and viability (following the technique described by P. A. Skehan, et al., J. Natl. CancerInst. 1990, 82, 1107-1112).
(§4) This form of assay employs 96 well cell culture microplates of 9 mm diameter (T. Mosmann et al., J. of Immuological Methods 1983, 65, 55-63; G. T. Faircloth et al., J. of Tissue and Culture Methods 1988, 11, 201-205). Most of the cell lines are obtained from American Type Culture Collection (ATCC) derived from different human cancer types.
(§5) Cells are maintained in RPMI 1640 10% FBS, supplemented with 0.1 g/L penicillin and 0.1 g/L streptomycin sulfate and then incubated at 37° C., 5% CO2 and 98% humidity. For the experiments, cells were harvested from subconfluent cultures using trypsin and resuspended in fresh medium before plating.
(§6) Cells are seeded in 96 well microtiter plates, at 5×10^3 cells per well in aliquots of 195 μL medium, and they are allowed to attach to the plate surface by growing in drug free medium for 18 hours. Afterward, samples are added in aliquots of 5 μL in a ranging from 10 to 10^−8 μg/mL, dissolved in DMSO/EtOH/PBS (0.5:0.5:99). After 48 hours exposure, the antitumor effect are measured by the SRB methodology: cells are fixed by adding 50 μL of cold 50% (wt/vol) trichloroacetic acid (TCA) and incubated for 60 minutes at 4° C. Plates are washed with deionizer water and dried. One hundred μl of SRB solution (0.4% wt/vol in 1% acetic acid) is added to each microliter well and incubated for 10 minutes at room temperature. Unbound SRB is removed by washing with 1% acetic acid. Plates are air dried and bound stain is solubilized with Tris buffer. Optical densities are read on a automated spectrophotometric plate reader at a single wavelength of 490 nm.
(§7) The values for mean +/−SD of data from triplicate wells are calculated. Some parameters for cellular responses can be calculated: GI=growth inhibition, TGI=total growth inhibition (cytostatic effect) and LC=cell killing (cytotoxic effect).

LoVo = assay: Inhibition of cell growth by colorimetric SRB assay, LOVO; conditions: Homo sapiens, LOVO, 48 hours exposure; for LC50: cell killing, read-out: LC50; for IC (total growth inhibition): read-out: TGI
Description: as §1, §2, §3, §4, §5, §6, §7

HT-29 = assay: Inhibition of cell growth by colorimetric SRB assay, HT-29; conditions: Homo sapiens, HT-29, 48 hours exposure; for CC50: cell killing, read-out: LC50 (the source's name); for IC (total growth inhibition): read-out: TGI
Description: as §1, §2, §3, §4, §5, §6, §7

LoVo-Dox = assay: Inhibition of cell growth by colorimetric SRB assay, LOVO-DOX; conditions: Homo sapiens, LOVO-DOX, 48 hours exposure; for LC50 (concentration for 50% cell killing): read-out: LC50; for IC (total growth inhibition): read-out: TGI
Description: as §1, §2, §3, §4, §5, §6, §7

DU-145 = assay: Inhibition of cell growth by colorimetric SRB assay, DU-145; conditions: Homo sapiens, DU-145, 48 hours exposure; for CC50: cell killing, read-out: LC50 (the source's name); for IC (total growth inhibition): read-out: TGI
Description: as §1, §2, §3, §4, §5, §6, §7

SK-MEL-28 = assay: Inhibition of cell growth by colorimetric SRB assay, MEL-28; conditions: Homo sapiens, SK-MEL-28, MEL-28, 48 hours exposure; for CC50: cell killing, read-out: LC50 (the source's name); for IC (total growth inhibition): read-out: TGI
Description: as §1, §2, §3, §4, §5, §6, §7

IGROV = assay: Inhibition of cell growth by colorimetric SRB assay, IGROV; conditions: Homo sapiens, 48 hours exposure; for CC50: cell killing, read-out: LC50 (the source's name); for IC (total growth inhibition): read-out: TGI
Description: as §1, §2, §3, §4, §5, §6, §7

A-549 = assay: Inhibition of cell growth by colorimetric SRB assay, A-549; conditions: Homo sapiens, A549, A-549, 48 hours exposure; for CC50: cell killing, read-out: LC50 (the source's name); for IC (total growth inhibition): read-out: TGI
Description: as §1, §2, §3, §4, §5, §6, §7

IGROV-ET = assay: Inhibition of cell growth by colorimetric SRB assay, IGROV-ET; conditions: Homo sapiens, IGROV-ET, 48 hours exposure; for CC50: cell killing, read-out: LC50 (the source's name); for IC (total growth inhibition): read-out: TGI
Description: as §1, §2, §3, §4, §5, §6, §7

PANC-1 = assay: Inhibition of cell growth by colorimetric SRB assay, PANC-1; conditions: Homo sapiens, PANC-1, 48 hours exposure; for CC50: cell killing, read-out: LC50 (the source's name); for IC (total growth inhibition): read-out: TGI
Description: as §1, §2, §3, §4, §5, §6, §7

HeLa = assay: Inhibition of cell growth by colorimetric SRB assay, HELA; conditions: Homo sapiens, HELA, 48 hours exposure; for CC50: cell killing, read-out: LC50 (the source's name); for IC (total growth inhibition): read-out: TGI
Description: as §1, §2, §3, §4, §5, §6, §7

HeLa-APL = assay: Inhibition of cell growth by colorimetric SRB assay, HELA-APL; conditions: Homo sapiens; for CC50: cell killing, read-out: LC50 (the source's name); for IC (total growth inhibition): read-out: TGI
Description: as §1, §2, §3, §4, §5, §6, §7

K-562 = assay: Inhibition of cell growth by colorimetric SRB assay, K-562; conditions: Homo sapiens, K562, K-562, 48 hours exposure
Description: as §1, §2, §3, §4, §5, §6, §7

LNCaP = assay: Inhibition of cell growth by colorimetric SRB assay, LN-caP; conditions: Homo sapiens, LN-caP, 48 hours exposure
Description: as §1, §2, §3, §4, §5, §6, §7

[1] = cell killing, read-out: LC50 (the source's name)
[2] = total growth inhibition, read-out: TGI

SMILES | GI50 (LoVo) [µM] | LC50 (LoVo) [µM] | IC (total growth inhibition) (LoVo) [µM] | GI50 (LoVo-Dox) [µM] | LC50 (concentration for 50% cell killing) (LoVo-Dox) [µM] | IC (total growth inhibition) (LoVo-Dox) [µM] | GI50 (DU-145) [µM] | CC50 (DU-145) [µM] | IC (total growth inhibition) (DU-145) [µM] | GI50 (SK-MEL-28) [µM] | CC50 (SK-MEL-28) [µM] | IC (total growth inhibition) (SK-MEL-28) [µM] | GI50 (A-549) [µM] | CC50 (A-549) [µM] | IC (total growth inhibition) (A-549) [µM] | GI50 (IGROV-ET) [µM] | CC50 (IGROV-ET) [µM] | IC (total growth inhibition) (IGROV-ET) [µM] | GI50 (PANC-1) [µM] | CC50 (PANC-1) [µM] | further results
C/C=C\[C@H](C)[C@H]1OC1(C)[C@@H](O)[C@@H](CO)C(=O)[C@@H](CO)[C@H](O)CC(=O)CC (stereo partly drawn) [3d + 4d] | 26.8 | 26.8 | 26.8 | 26.8 | 26.8 | 26.8 | 26.8 | 26.8 | 26.8 | 26.8 | 26.8 | 26.8 | 26.8 | 26.8 | 26.8 | 17.1 | 26.8 | 26.8 | 13.5 | 26.8 | GI50 (SK-BR-3): 20.5 µM; CC50 (SK-BR-3): 26.8 µM; TGI (SK-BR-3): 2.68E−05 Molar; GI50 (HT-29): 26.8 µM; CC50 (HT-29): 26.8 µM; IC (total growth inhibition) (HT-29): 26.8 µM; GI50 (IGROV): 20.5 µM; CC50 (IGROV): 26.8 µM; IC (total growth inhibition) (IGROV): 26.8 µM; IC (total growth inhibition) (PANC-1): 26.8 µM; GI50 (HeLa): 26.8 µM; CC50 (HeLa): 26.8 µM; IC (total growth inhibition) (HeLa): 26.8 µM; CC50 (HeLa-APL; HELA-APL, 48 hours exposure): 26.8 µM; GI50 (HeLa-APL; HELA-APL, 48 hours exposure, read-out: GI50): 26.8 µM; IC (total growth inhibition) (HeLa-APL; HELA-APL, 48 hours exposure, total growth inhibition): 26.8 µM
C/C=C\[C@H](C)[C@H]1OC1(C)[C@@H](O[Si](C)(C)C(C)(C)C)[C@@H](CO)C(=O)[C@@H](CO)[C@H](O)CC(=O)CC (stereo partly drawn) [31b + 31d] | 20.5 | 20.5 | 20.5 | 20.5 | 20.5 | 20.5 | 20.5 | 20.5 | 20.5 | 20.5 | 20.5 | 20.5 | 20.5 | 20.5 | 20.5 | 20.5 | 20.5 | 20.5 | 12.6 | 20.5 | GI50 (SK-BR-3): 20.2 µM; CC50 (SK-BR-3): 20.5 µM; TGI (SK-BR-3): 2.05E−05 Molar; GI50 (HT-29): 20.5 µM; CC50 (HT-29): 20.5 µM; IC (total growth inhibition) (HT-29): 20.5 µM; GI50 (IGROV): 16.5 µM; CC50 (IGROV): 20.5 µM; IC (total growth inhibition) (IGROV): 20.5 µM; IC (total growth inhibition) (PANC-1): 20.5 µM; GI50 (HeLa): 20.5 µM; CC50 (HeLa): 20.5 µM; IC (total growth inhibition) (HeLa): 20.5 µM; CC50 (HeLa-APL; HELA-APL, 48 hours exposure): 20.5 µM
C/C=C\[C@H](C)[C@H]1OC1(C)[C@@H](O[Si](C)(C)C(C)(C)C)[C@@H](CO[Si](C)(C)C(C)(C)C)C(=O)[C@@H](CO[Si](C)(C)C(C)(C)C)[C@H](CC(=O)CC)O[Si](C)(C)C(C)(C)C (stereo partly drawn) [Compound 30a] | 6.37 | 12.1 | 12.1 | 12.1 | 12.1 | 12.1 | 12.1 | 12.1 | 12.1 | 12.1 | 12.1 | 12.1 | 12.1 | 12.1 | 12.1 | 8.27 | 12.1 | 12.1 | 12.1 | 12.1 | GI50 (SK-BR-3): 8.56 µM; CC50 (SK-BR-3): 12.1 µM; TGI (SK-BR-3): 1.21E−05 Molar; IC (total growth inhibition) (PANC-1): 12.1 µM; GI50 (HeLa): 12.1 µM; CC50 (HeLa): 12.1 µM; IC (total growth inhibition) (HeLa): 12.1 µM; CC50 (HeLa-APL; HELA-APL, 48 hours exposure): 12.1 µM
C/C=C\[C@H](C)[C@H]1OC1(C)[C@@H](O[Si](C)(C)C(C)(C)C)[C@@H](CO[Si](C)(C)C(C)(C)C)C(=O)[C@@H](CO[Si](C)(C)C(C)(C)C)[C@@H](CC(=O)CC)O[Si](C)(C)C(C)(C)C (stereo partly drawn) [Compound 30b] | 6.88 | 12.1 | 12.1 | 12.1 | 12.1 | 12.1 | 12.1 | 12.1 | 12.1 | 12.1 | 12.1 | 12.1 | 12.1 | 12.1 | 12.1 | 8.27 | 12.1 | 12.1 | 12.1 | 12.1 | GI50 (SK-BR-3): 12.1 µM; CC50 (SK-BR-3): 12.1 µM; TGI (SK-BR-3): 1.21E−05 Molar; IC (total growth inhibition) (PANC-1): 12.1 µM; GI50 (HeLa): 12.1 µM; CC50 (HeLa): 12.1 µM; IC (total growth inhibition) (HeLa): 12.1 µM; CC50 (HeLa-APL; HELA-APL, 48 hours exposure): 12.1 µM
C/C=C\[C@H](C)[C@H]1OC1(C)[C@@H](O[Si](C)(C)C(C)(C)C)[C@@H](COC(C)=O)C(=O)[C@H](CO)[C@H](O)CC(=O)CC (stereo partly drawn) [Compound 43] | 4.03 | 18.9 | 9.06 | 3.31 | 15.7 | 7.21 | 4.99 | 18.7 | 9.66 | 3.9 | 13.4 | 7.24 | 4.44 | 16.2 | 8.49 | 4.52 | 17.8 | 8.96 | 3.73 | 13.2 | GI50 (HT-29): 4.24 µM; CC50 (HT-29): 16.2 µM; IC (total growth inhibition) (HT-29): 8.28 µM; GI50 (IGROV): 4.94 µM; CC50 (IGROV): 18.9 µM; IC (total growth inhibition) (IGROV): 9.99 µM; GI50 (K-562): 3.59 µM; CC50 (K-562; [1]): 16.5 µM; IC (total growth inhibition) (K-562; [2]): 7.72 µM; IC (total growth inhibition) (PANC-1): 7.02 µM; GI50 (HeLa): 4.37 µM; CC50 (HeLa): 16.4 µM; IC (total growth inhibition) (HeLa): 8.47 µM; GI50 (LNCaP): 3.78 µM; CC50 (LNCaP; [1]): 15.4 µM; IC (total growth inhibition) (LNCaP; [2]): 7.62 µM; GI50 (HeLa-APL; 48 h): 4.27 µM; IC (total growth inhibition) (HeLa-APL; 48 h): 9.34 µM; CC50 (HeLa-APL; HELA-APL, 48 hours exposure): 18.9 µM
